Measurements taken from US10940150B2, “Thymine derivatives and quinazoline-dione derivatives for the inhibition of HSP27” (TECHNISCHE UNIVERSITAET DRESDEN, priority 2014, dated 2021).

Columns and labels:
HSP27 = HSP27 (Homo sapiens, UniProt P04792); test: Capillary electrophoresis of heat-denatured citrate synthase protein precipitates; format: biochemical; details: for Rel. quantity of protein prec. CS: 10 μmol/L
Protocol: (§1) Since the heat-denatured protein aggregates of the citrate synthase from Example 1 are not water-soluble, these can be separated completely from the supernatant by means of centrifugation at room temperature at 16,000×g, 10 min. By using capillary electrophoresis, the compositions of the separated precipitates can be shown and quantified. The relative quantity of protein of precipitated citrate synthase serves as a measure of the efficacy of the test substances.
(§2) In each case, 481 nmol/L HSP27 and 1.44 μmol/L citrate synthase in 40 mmol/L HEPES buffer, pH 7.4, were employed. The relative quantity of protein of the precipitated citrate synthase in each case was normalized using a defined quantity of BSA as internal standard. The relative quantity of protein that precipitated when using 750 μmol/L BVDU was set at 1. The other test substances (2 representatives of phenothiazine derivatives of general formula (V), 2 representatives of purine derivatives of formula (I) or (II)) were each employed at a concentration of 10 μmol/L.
as §1, with “Example 2” for “Example 1”
as §2, with “nM” for “nmol/L”, “thymine” for “purine”, “were” for “were each”, “μmol/L in each case.” for “μmol/L.”
Otherwise, the experiments were performed as described above: […]

RPMI-8226 cells = test: Development of resistance to bortezomib in RPMI-8226 cells; format: cell-based; details: bortezomib 0.075-0.275 ng/ml + 1 μmol/L test substance (FIG. 9a)
[1] = 10 μmol/L vs 750 μmol/L BVDU, 43° C. for 70 minutes (Table 3)
[2] = 43° C. for 70 minutes, relative to 750 μmol/L BVDU = 1 (Table 3)

Chain of HSP27 (P04792 whole entry): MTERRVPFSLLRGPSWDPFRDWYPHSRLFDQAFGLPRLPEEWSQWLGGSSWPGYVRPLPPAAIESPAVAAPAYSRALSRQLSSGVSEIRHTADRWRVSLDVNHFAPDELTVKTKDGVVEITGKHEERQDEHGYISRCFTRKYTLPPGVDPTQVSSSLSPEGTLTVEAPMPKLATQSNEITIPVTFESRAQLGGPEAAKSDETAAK

| Efficacy compared with BVDU (HSP27; [1]) | Rel. quantity of protein prec. CS (HSP27; [2]) | SMILES | further results |
| --- | --- | --- | --- |
| 60.88 x | 0.81 | Cc1cn(C2C[C@H](n3cc(-c4cccc(Br)c4)nn3)[C@@H](CO)O2)c(=O)[nH]c1=O (stereo partly drawn) [1-[(4S,5S)-4-[4-(3-Bromophenyl)-1H-1,2,3-triazol-1-yl]-5-(hydroxymethyl)oxolan-2-yl]-5-methyl-1,2,3,4-tetrahydropyrimidine-2,4-dione] | – |
| 48.14 x | 0.64 | Cc1cn(C2C[C@H](n3cc(-c4ccc(Br)cc4)nn3)[C@@H](CO)O2)c(=O)[nH]c1=O (stereo partly drawn) [1-[(4S,5S)-4-[4-(4-Bromophenyl)-1,2,3-triazol-1-yl]-5-(hydroxymethyl)oxolan-2-yl]-5-methyl-3H-pyrimidine-2,4-dione] | – |
| 55.89 x | 0.75 | COc1ccc(-c2cn([C@H]3CC(n4cc(C)c(=O)[nH]c4=O)O[C@@H]3CO)nn2)cc1 (stereo partly drawn) [1-[(4S,5S)-5-(Hydroxymethyl)-4-[4-(4-methoxyphenyl)-1,2,3-triazol-1-yl]oxolan-2-yl]-5-methyl-3H-pyrimidine-2,4-dione] | – |
| – | – | Cc1cn(CC=CCNC(=O)Cc2ccc(-c3ccccc3)cc2)c(=O)[nH]c1=O [2-biphenyl-4-yl-N-[4-(5-methyl-2,4-dioxo-3,4-dihydro-2H-pyrimidin-1-yl)-but-2-enyl]-acetamide] | times higher activity than BVDU for the inhibition of the HSP27 protein (HSP27; 10 μmol/L vs 750 μmol/L BVDU, 43° C. for 120 minutes): 61 times; Efficacy compared with BVDU (HSP27; 10 μmol/L vs 750 μmol/L BVDU, 43° C. for 120 minutes (Table 2)): 60.75 x; Rel. quantity of protein prec. CS (HSP27; 43° C. for 120 minutes, relative to 750 μmol/L BVDU = 1 (Table 2)): 0.81; BVDU equivalent dose (HSP27; based on 100 mg BVDU): 1.6 mg; development of resistance to the cytostatic agent bortezomib (RPMI-8226 cells): significantly inhibited; living cells at the end of the experiment (RPMI-8226 cells; without HSP27 inhibitor 510,000 cells/ml): 380,000 living cells per ml medium |
| 57.08 x | 0.76 | CCCCc1cn([C@H]2C[C@H](n3cc(C)c(=O)[nH]c3=O)O[C@@H]2CO)nn1 [3′-(4-Butyl-1H-1,2,3-triazol-1-yl)-3′-deoxythymidine] | – |
| 52.57 x | 0.70 | CCCCCc1cn([C@H]2C[C@H](n3cc(C)c(=O)[nH]c3=O)O[C@@H]2CO)nn1 [3′-Deoxy-3′-(4-pentyl-1H-1,2,3-triazol-1-yl)thymidine] | – |
| 59.07 x | 0.79 | Cc1cn([C@H]2C[C@H](n3cc(-c4ccccc4)nn3)[C@@H](CO)O2)c(=O)[nH]c1=O [3′-Deoxy-3′-(4-phenyl-1H-1,2,3-triazol-1-yl)thymidine] | – |
| 59.59 x | 0.79 | CCCc1cn([C@H]2C[C@H](n3cc(C)c(=O)[nH]c3=O)O[C@@H]2CO)nn1 [3′-Deoxy-3′-(4-propyl-1H-1,2,3-triazol-1-yl)thymidine] | – |
| 46.01 x | 0.61 | Cc1cn([C@H]2C[C@H](n3cc(C(C)(C)C)nn3)[C@@H](CO)O2)c(=O)[nH]c1=O [3′-Deoxy-3′-[4-(2-methyl-2-propanyl)-1H-1,2,3-triazol-1-yl]thymidine] | – |
| 55.67 x | 0.74 | Cc1cn([C@H]2C[C@H](n3cc(CCc4ccccc4)nn3)[C@@H](CO)O2)c(=O)[nH]c1=O [3′-Deoxy-3′-[4-(2-phenylethyl)-1H-1,2,3-triazol-1-yl]-thymidine] | – |
| 62.86 x | 0.84 | Cc1cn([C@H]2C[C@H](n3cc(-c4ccccn4)nn3)[C@@H](CO)O2)c(=O)[nH]c1=O [3′-Deoxy-3′-[4-(2-pyridinyl)-1H-1,2,3-triazol-1]-yl]thymidine] | – |
| 64.21 x | 0.86 | Cc1cn([C@H]2C[C@H](n3cc(-c4ccc(Cl)c(Cl)c4)nn3)[C@@H](CO)O2)c(=O)[nH]c1=O [3′-Deoxy-3′-[4-(3,4-dichlorophenyl)-1H-1,2,3-triazol-1-yl]-thymidine] | – |
| 49.69 x | 0.66 | Cc1cn([C@H]2C[C@H](n3cc(-c4ccc(F)cc4)nn3)[C@@H](CO)O2)c(=O)[nH]c1=O [3′-Deoxy-3′-[4-(4-fluorophenyl)-1H-1,2,3-triazol-1-yl]-thymidine] | – |
| 50.53 x | 0.67 | Cc1cn([C@H]2C[C@H](n3cc(-c4ccc(Cl)cc4)nn3)[C@@H](CO)O2)c(=O)[nH]c1=O [3′-[4-(4-Chlorophenyl)-1H-1,2,3-triazol-1-yl]-3′-deoxythymidine] | – |
| 49.63 x | 0.66 | Cc1cn([C@H]2C[C@H](n3cc(CC4CCCC4)nn3)[C@@H](CO)O2)c(=O)[nH]c1=O [3′-[4-(Cyclopentylmethyl)-1H-1,2,3-triazol-1-yl]-3′-deoxythymidine] | – |
| 58.97 x | 0.79 | Cc1cn(CCCCNC(=O)C(c2ccccc2)c2ccccc2)c(=O)[nH]c1=O [N-[4-(5-Methyl-2,4-dioxo-3H-pyrimidin-1-yl)butyl]-2,2-diphenylacetamide] | – |
| 50.52 x | 0.67 | Cc1cn(CCCCNC(=O)Cc2ccc(-c3ccccc3)cc2)c(=O)[nH]c1=O [N-[4-(5-Methyl-2,4-dioxo-3H-pyrimidin-1-yl)butyl]-2-(4-phenylphenyl)acetamide] | – |
| 56.36 x | 0.75 | Cc1cn(CCCCNC(=O)Cc2ccc3ccccc3c2)c(=O)[nH]c1=O [N-[4-(5-Methyl-2,4-dioxo-3H-pyrimidin-1-yl)butyl]-2-(naphthalen-2-yl)acetamide] | – |
| 43.30 x | 0.58 | Cc1cn(CCCCNC(=O)C2c3ccccc3-c3ccccc32)c(=O)[nH]c1=O [N-[4-(5-Methyl-2,4-dioxo-3H-pyrimidin-1-yl)butyl]-9H-fluorene-9-carboxamide] | – |
| 51.16 x | 0.68 | Cc1cn(CCCCNC(=O)C2c3ccccc3Oc3ccccc32)c(=O)[nH]c1=O [N-[4-(5-Methyl-2,4-dioxo-3H-pyrimidin-1-yl)butyl]-9H-xanthene-9-carboxamide] | – |
| 66.15 x | 0.88 | O=C(Cc1ccc(-c2ccccc2)cc1)NC/C=C\Cn1ccc(=O)[nH]c1=O [N-[(2Z)-4-(2,4-Dioxo-3H-pyrimidin-1-yl)but-2-en-1-yl]-2-(4-phenylphenyl)acetamide] | – |
| 86.25 x | 1.15 | O=C(Cc1ccc2ccccc2c1)NC/C=C\Cn1ccc(=O)[nH]c1=O [N-[(2Z)-4-(2,4-Dioxo-3H-pyrimidin-1-yl)but-2-en-1-yl]-2-(naphthalen-2-yl)acetamide] | – |
| 63.38 x | 0.85 | O=C(NC/C=C\Cn1ccc(=O)[nH]c1=O)C1c2ccccc2OC2C=CC=CC21 (stereo not drawn) [N-[(2Z)-4-(2,4-Dioxo-3H-pyrimidin-1-yl)but-2-en-1-yl]-9,9a-dihydro-4aH-xanthene-9-carboxamide] | – |
| 61.19 x | 0.82 | Cc1cn(C/C=C\CNC(=O)C(c2ccccc2)c2ccccc2)c(=O)[nH]c1=O [N-[(2Z)-4-(5-Methyl-2,4-dioxo-3H-pyrimidin-1-yl)but-2-en-1-yl]-2,2-diphenylacetamide] | – |
| 60.44 x | 0.81 | Cc1cn(C/C=C\CNC(=O)Cc2cccc3ccccc23)c(=O)[nH]c1=O [N-[(2Z)-4-(5-Methyl-2,4-dioxo-3H-pyrimidin-1-yl)but-2-en-1-yl]-2-(naphthalen-1-yl)acetamide] | – |
| 62.51 x | 0.83 | Cc1cn(C/C=C\CNC(=O)Cc2ccc3ccccc3c2)c(=O)[nH]c1=O [N-[(2Z)-4-(5-Methyl-2,4-dioxo-3H-pyrimidin-1-yl)but-2-en-1-yl]-2-(naphthalen-2-yl)acetamide] | – |
| 64.31 x | 0.86 | Cc1cn(C/C=C\CNC(=O)C2c3ccccc3-c3ccccc32)c(=O)[nH]c1=O [N-[(2Z)-4-(5-Methyl-2,4-dioxo-3H-pyrimidin-1-yl)but-2-en-1-yl]-9H-fluorene-9-carboxamide] | – |
| 58.73 x | 0.78 | Cc1cn(C/C=C\CNC(=O)c2cccc3ccccc23)c(=O)[nH]c1=O [N-[(2Z)-4-(5-Methyl-2,4-dioxo-3H-pyrimidin-1-yl)but-2-en-1-yl]naphthalene-1-carboxamide] | – |
